Results as given in patent US12377152B2, “Compounds for degrading alpha-synuclein aggregates and uses thereof” (APRINOIA THERAPEUTICS LIMITED, priority 2019, dated 2025).

Key:
[1] = target: α-synuclein aggregates (Homo sapiens (Human), UniProt P37840); assay: ReNcell VM α-synuclein aggregation assay; type: cell-based; conditions: for DC50: ReNcell VM cells, read-out: Activity (DC50, concentration at which 50% of α-synuclein aggregates has been degraded)
Description: The ReNcell VM α-synuclein aggregation assay was conducted at Charles River Laboratories (CRL). ReNcell VM is an immortalized human neural progenitor cell line derived from the ventral mesencephalon region of the brain. ReNcell VM cells were selected as in vitro cellular model for the α-synuclein aggregation assay, based on their growth features, differentiation potential into terminally differentiated neurons and amenability to adenoviral transduction. Aggregated human wild type α-synuclein was overexpressed through adenoviral delivery. Aggregated α-synuclein was detected with the aggregate-selective anti-α-synuclein antibody MJFR14 using immunocytochemistry; total α-synuclein levels were detected with Syn205 (α/β-synuclein-specific antibody).
The ReNcell VM α-synuclein aggregation assay was applied for compound screening to identify compounds capable of degrading α-synuclein aggregates. […] Immunoreactivity toward aggregated (MJFR14) and total α-synuclein (Syn205) was quantified using high content-based segmentation of immunoactive areas in immunocytochemical images (performed with the IN Cell 2200 (GE Healthcare)), followed by quantification of immunofluorescent intensity (performed by CRL's developed algorithm using IN Cell Developer Toolbox software).
Percentage effect (PE): Inhibition in comparison to BLANK (0.1% DMSO).
PE=100−(signal of compound/average signal BLANK)×100
Compound-induced cytotoxicity (% remaining cells)
% remaining cells=(nuclei count of compound/average nuclei count of BLANK)×100

[2] = target: T1, α-synuclein (Homo sapiens (Human), UniProt P37840); assay: In vivo assay for degrading α-synuclein aggregates (transgenic Line61 mice); conditions: 25 mpk, once intravenous, hemibrain, WES System
Description: Male transgenic Line61 mice at age of three-month-old were used for the study. Mice were treated once via intravenous injection with the compound 132168 (25 mpk). Plasma and brain samples were collected at 0.25, 0.5, 1, 2, 4, 8 and 24 h post treatment. Blood samples were collected via cardiac puncture into MiniCollect® 0.5 mL K2EDTA (Potassium ethylenediaminetetraacetic acid) tubes. The blood samples were centrifuged at 3000×g for 10 minutes at room temperature (22° C.). Plasma was transferred to a pre-labeled 1.5 ml LoBind Eppendorf tube (2 aliquot, each ˜[…]), frozen on dry ice and stored at −80° C. until analysis. For brain samples, a perfusion with 0.9% saline was performed before collection. Brain was weighed, hemisected on a cooled surface, weighed and snap frozen. The hemibrain was used for WES System analysis of human α-synuclein in soluble and insoluble fraction. Upon treatment of compound 132168, insoluble α-synuclein fraction decreases 30% compared to DMSO vehicle control, reflecting the reduction of insoluble α-synuclein aggregates.

[3] = In vivo pharmacokinetic study; conditions: mice; for AUC(0-t) / Cmax / Tmax / half-life: mouse
Description: To determine whether the compounds of the present disclosure are capable of crossing the blood brain barrier (BBB), example compound 132168 was administered to mice in a pharmacokinetic study (10 and 25 mg/kg, intravenous).
Animal Husbandry: Mice were housed at animal room environment with ventilation 15 times/hour, lighting 12 hours/day, temperature 20° C. to 24° C. and humidity 40% to 70%. The study rooms were disinfected and cleaned prior to the start of the study and the operation area was cleaned after each dosing or sampling during the study conduct. All animals had free access to food and water during the study. The animals had access to Certified Rodent Diet and water ad libitum. The nutritional composition and levels of contaminants of the diet and impurities and contaminants of the water were monitored by third organization. The health status of the animals was evaluated in accordance with accepted animal husbandry procedures and deemed suitable for experimental use.
Sample Collection & Processing: Approximately 110 μL of whole blood were collected from all animals via facial or cardiac puncture under anesthesia with Isoflurane into test tubes containing potassium ethylenediaminetetraacetate (K2EDTA) at 0.25, 0.5, 1, 2, 4, 8 and 24 hr post dose. Brian samples were collected at 0.25, 0.5, 1, 2, 4, 8 and 24 hours post dose. A perfusion with pre-cold saline will be conducted via cardiac puncture before brain collection. Blood samples were centrifuged at 2000 g at 4° C. for 5 minutes to obtain plasma samples by transferring the supernatants into new tubes. All plasma and brain samples were stored at approximately −70° C. until analysis.
Bioanalytical Method Development: The concentrations of compound in plasma and brain samples were determined using a liquid chromatography with tandem mass spectrometry (LC-MS/MS) based method.

[4] = target: T1, α-synuclein; assay: In vitro fluorometric α-synuclein binding assay; conditions: 2 μM α-synuclein, 37° C., 1 hour, fluorescence
Description: (§1) (A) Expression and purification of recombinant wild-type human α-synuclein: 0.5 mM IPTG was used to induce production of wild type human α-synuclein by bacteria transformed with a full-length α-synuclein expression plasmid. After shaking at 16° C. for 20 hours, cell pellet was resuspended in lysis buffer (10 mM Tris, 1 mM EGTA, 0.75 mM NaCl, 1 mM PMSF, pH 7.5) and lysed by sonication followed by centrifugation (6000 g, 30 min, 4° C.). The supernatant was then boiled at 95° C. for 15 min with manual agitation by every 5 minutes, followed by centrifugation (6000 g, 30 min, 4° C.). Supernatant was dialyzed with (10 mM Tris, 1 mM EGTA, 50 mM NaCl, pH 7.5) buffer and concentrated with concentrator. The collected sample was loaded onto a Superdex200 column, the flow-through fraction was then loaded onto a Q-HP column. Collected fractions with α-synuclein eluates were pooled, concentrated and stored at −80° C.
(§2) (B) Preparation of aggregated α-synuclein: 5 mg/mL of α-synuclein in PBS buffer (pH 7.4) was incubated in tube with at 37° C. with shaking (700 rpm) for 5-10 days.
(C) In vitro fluorometric α-synuclein binding assays: 2 μM α-synuclein was incubated with serially diluted compound (three-fold serial dilutions, from 10 to 0.001 μM) in a 96-well plate at 37° C. for 1 hour. Fluorescence intensity was read by microplate spectrometer. Compound Kd values were calculated using the following equation: Y=Bmax*X/(Kd+X), where X is the concentration of compound; Y is the fluorescence signal of (compound+α-synuclein)−(compound+DMSO); and Bmax is the maximum signal.

[5] = target: T1, α-synuclein; assay: PBB5 competition assay; type: binding; conditions: 2 μM α-synuclein, 0.26 μM PBB5, 37° C., 1 hour
Description: as §1, §2
(D) PBB5 competition assay: 2 μM of α-synuclein was incubated with 0.26 μM 2-(4-(2-(methylamino)pyridine-5-yl)-1,3-butadiene-1-yl)benzothiazole-6-ol (PBB5) and serially diluted compound (three-fold serial dilution, from 10 to 0.001 μM) in a 96-well plate at 37° C. for 1 hour. Fluorescence intensity (excitation/emission=530/690 nm) of PBB5 was read by microplate spectrometer. Percentage of competition was calculated using the following equation: (Max−well of compound alone)/(Max−Min)*100%, where Max=(α-synuclein+PBB5) signals−(buffer+PBB5) signals; and Min=(buffer+PBB5) signals−(buffer+PBB5) signals. The IC50 value of each compound was calculated with GraphPad Prism software using the “4 Parameter Logistic Model or Sigmoidal Dose-Response Model”: Y=Bottom+(Top−Bottom)/(1+(IC50/X)^HillSlope)

inhibition of MJFR14 immunoreactivity ([1]; 6-day treatment, immunocytochemical images) | decrease of insoluble α-synuclein fraction compared to DMSO vehicle control [2] | blood brain barrier (BBB) penetration ([3]; 10 and 25 mg/kg intravenous) | AUC(0-t) ([3]; Brain, 10 mg/kg intravenous) | Cmax ([3]; Brain, 10 mg/kg intravenous) | Tmax ([3]; Brain, 10 mg/kg intravenous) | half-life ([3]; Brain, 10 mg/kg intravenous) | AUC(0-t) ([3]; Brain, 25 mg/kg intravenous) | Cmax ([3]; Brain, 25 mg/kg intravenous) | Tmax ([3]; Brain, 25 mg/kg intravenous) | AUC(0-t) ([3]; Plasma, 10 mg/kg intravenous) | half-life ([3]; Plasma, 10 mg/kg intravenous) | AUC(0-t) ([3]; Plasma, 25 mg/kg intravenous) | half-life ([3]; Plasma, 25 mg/kg intravenous) | SMILES | DC50 [1] | Kd [4] | IC50 [5]
clear inhibition | 30% | able to penetrate BBB | 1330 ng·h/mL | 319 ng/mL | 0.5 h | 5.88 h | 4070 ng·h/mL | 581 ng/mL | 4 h | 17800 ng·h/mL | 2.87 h | 48700 ng·h/mL | 2.12 h | CN(C)c1ccc(-c2ccc(-c3nc4ccc(NCCCCCOc5ccc6c(c5)CN(C5CCC(=O)NC5=O)C6=O)cc4s3)c(C(F)(F)F)c2)cn1 (stereo not drawn) [Compound 132168] | 10 to 900 nM | – | –
– | – | – | – | – | – | – | – | – | – | – | – | – | – | CN(C)c1ccc(-c2ccc(-c3cn4cc(OCCOCCOc5ccc6c(c5)CN(C5CCC(=O)NC5=O)C6=O)ccc4n3)cc2)cn1 (stereo not drawn) [Compound 177033] | > 10000 nM | 650 nM | 630 nM
